Patent US20120214847A1, “2-[1-PHENYL-5-HYDROXY-4a-SUBSTITUTED-HEXAHYDROCYCLOPENTA[F]INDAZOL-5-YL]ETHYL PHENYL DERIVATIVES AS GLUCOCORTICOID RECEPTOR LIGANDS” (Merck Sharp & Dohme Corp., priority 2009, published 2012)

Target: T1, glucocorticoid receptor (Homo sapiens, UniProt P04150)
T1 construct: endogenous in cells; host or cells: HeLa (ATCC) cell lysate supernatant
T1 sequence (P04150 1-777): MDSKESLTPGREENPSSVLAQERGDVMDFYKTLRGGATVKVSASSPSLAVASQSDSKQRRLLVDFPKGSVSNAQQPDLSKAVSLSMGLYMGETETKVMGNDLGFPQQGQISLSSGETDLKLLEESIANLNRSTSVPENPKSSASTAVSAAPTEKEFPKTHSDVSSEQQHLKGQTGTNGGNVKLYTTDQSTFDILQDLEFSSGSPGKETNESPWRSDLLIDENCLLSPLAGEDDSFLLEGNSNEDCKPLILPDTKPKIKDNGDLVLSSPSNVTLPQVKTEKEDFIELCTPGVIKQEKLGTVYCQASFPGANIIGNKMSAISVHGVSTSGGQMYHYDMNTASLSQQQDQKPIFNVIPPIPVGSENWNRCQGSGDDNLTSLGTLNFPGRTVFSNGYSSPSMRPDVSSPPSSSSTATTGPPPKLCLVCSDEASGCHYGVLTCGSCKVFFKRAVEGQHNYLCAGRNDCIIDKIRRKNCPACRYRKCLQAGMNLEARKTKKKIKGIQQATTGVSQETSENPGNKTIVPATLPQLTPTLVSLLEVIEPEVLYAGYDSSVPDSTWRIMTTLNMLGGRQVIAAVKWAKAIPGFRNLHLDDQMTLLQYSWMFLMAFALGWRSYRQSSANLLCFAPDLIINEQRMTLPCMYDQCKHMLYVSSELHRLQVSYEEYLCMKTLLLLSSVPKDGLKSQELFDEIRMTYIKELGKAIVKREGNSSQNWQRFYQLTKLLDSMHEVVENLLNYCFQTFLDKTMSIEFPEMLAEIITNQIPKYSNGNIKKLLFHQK
Test: Ligand binding assay (GRBind), 3H-dexamethasone displacement in HeLa cell lysate
Settings: 3H-DEX tracer
How it was run: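 Cytosolic supernatant from HeLa cells in TEGM buffer (pH 7.2, with molybdate) was incubated overnight at 4 °C with 3H-dexamethasone (6 nM trace solution) and serially diluted compound, with 2% ethanol. Bound receptor was captured on hydroxylapatite, filtered and counted by scintillation. IC50s were calculated using dexamethasone as reference.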

Ki [nM]	Structure (SMILES)
1.32	OCc1ccccc1CC[C@]1(O)CCC2=Cc3c(cnn3-c3ccc(F)cc3)C[C@@]21C1CC1 [Example 2, (4aR,5R)-4a-Cyclopropyl-1-(4-fluorophenyl)-5-{2-[2-(hydroxymethyl)phenyl]ethyl}-1,4,4a,5,6,7-hexahydrocyclopenta[f]indazol-5-ol]
7.3	CC[C@]12Cc3cnn(-c4ccccc4)c3C=C1CC[C@@]2(O)CCc1ncccc1S(=O)(=O)C(C)C [Example 81, (4aS,5R)-4a-Ethyl-5-{2-[3-(iso-propylsulfonyl)pyridin-2-yl]ethyl}-1-phenyl-1,4,4a,5,6,7-hexahydrocyclopenta[f]indazol-5-ol]
1.8	NC(=O)C(O)c1ccccc1CC[C@]1(O)CCC2=Cc3c(cnn3-c3ccc(F)cc3)C[C@@]21C1CC1 (single isomer, unassigned) [Example 3a]
5.46	CC[C@]12Cc3cnn(-c4ccccc4)c3C=C1CC[C@@]2(O)CC(O)c1ccccn1 (single isomer, unassigned) [Example 82b]
1.32	CC[C@]12Cc3cnn(-c4ccc(F)cc4)c3C=C1CC[C@@]2(O)CCc1ncccc1S(C)(=O)=O [Example 80, (4aS,5R)-4a-Ethyl-1-(4-fluorophenyl)-5-{2-[3-(methylsulfonyl)pyridin-2-yl]ethyl}-1,4,4a,5,6,7-hexahydrocyclopenta[f]indazol-5-ol]
11.3	CC[C@]12Cc3cnn(-c4ccccc4)c3C=C1CC[C@@]2(O)CC(O)c1ccccn1 (single isomer, unassigned) [Example 82a]
1.55	OC(C[C@]1(O)CCC2=Cc3c(cnn3-c3ccc(F)cc3)C[C@@]21C1CC1)c1ccc(F)cn1 (single isomer, unassigned) [Example 79b]
